Assay results taken from paper PMC10234496 (Organic letters, 2022).

Assays:
K. pneumoniae = assay: MIC against K. pneumoniae; type: cell-based, Klebsiella pneumoniae; conditions: Gram-negative; measured in duplicate
A. baumannii = assay: MIC against A. baumannii; type: cell-based, Acinetobacter baumannii; conditions: Gram-negative; measured in duplicate
E. faecium = assay: MIC against E. faecium; type: cell-based, Enterococcus faecium; conditions: Gram-positive; measured in duplicate
E. coli = assay: MIC against E. coli; type: cell-based, Escherichia coli; conditions: Gram-negative; measured in duplicate
E. cloacae = assay: MIC against E. cloacae; type: cell-based; conditions: Gram-negative; measured in duplicate
P. aeruginosa = assay: MIC against P. aeruginosa; type: cell-based, Pseudomonas aeruginosa; conditions: Gram-negative; measured in duplicate
S. aureus = assay: MIC against S. aureus; type: cell-based, Staphylococcus aureus; conditions: Gram-positive; measured in duplicate
VRE clinical isolates = assay: MIC against VRE clinical isolates; type: cell-based, Vancomycin-resistant Enterococcus; conditions: Figure 3, Table S9
MDR S. aureus strains = assay: MIC against MDR S. aureus strains; type: cell-based; conditions: Figure 3, Table S9

Substance | MIC K. pneumoniae (K. pneumoniae) | MIC A. baumannii (A. baumannii) | MIC E. faecium (E. faecium) | MIC E. coli (E. coli) | MIC E. cloacae (E. cloacae) | MIC P. aeruginosa (P. aeruginosa) | MIC S. aureus (S. aureus) | MIC against VRE clinical isolates (VRE clinical isolates) | MIC against MDR S. aureus strains (MDR S. aureus strains)
Laterocidine | 2 µg/mL | 0.5 µg/mL | >128 µg/mL | 0.5 µg/mL | 1 µg/mL | 2 µg/mL | >128 µg/mL | – | –
Paenibacterin | 8 µg/mL | 8 µg/mL | 8 µg/mL | 4 µg/mL | 4 µg/mL | 8 µg/mL | 16 µg/mL | – | –
Tridecaptin A | 1 µg/mL | 4 µg/mL | 64 µg/mL | 1 µg/mL | 2 µg/mL | 64 µg/mL | 128 µg/mL | 128 µg/mL | 128 µg/mL
